Test results taken from patent US11540516B2, “M-diamide compound and preparation method therefor and use thereof” (priority 2018, dated 2023).
Like-named read-outs stand apart in the source and are kept apart here.

Columns and labels:
Assay type in all cases: in vivo
[1] = system: Spodoptera exigua Hiibner; test: Indoor bioactivity test against Spodoptera exigua Hiibner (leaf dip); settings: foliar, 3rd day after treatment
Method: (§1) The leaf dip method was used to assay the insecticidal activity of compounds to strains of Spodoptera exigua Hiibner. Dip the leaf disc into the solution prepared with compound of this invention for 10 seconds, and dry them in a cool environment. Then place them in Petri dish with 4 discs per dish. Put the filter paper into the Petri dish to moisturize it. Put 10 of Spodoptera exigua Hiibners into each dish, which was repeated by 3 times. The dishes were placed in an illumination incubator and incubated at 25° C. with 14 hL: 10 hD illumination. The number of Spodoptera exigua Hiibner death was investigated on the 1st, 2nd and 3rd day after treatment, and the mortality was calculated.

Plutella xylostella = test: Indoor bioactivity test against Plutella xylostella (leaf dip); settings: foliar; for mortality at 1 ppm / mortality at 0.4 ppm: 3rd day after treatment
Method: as §1, with “Plutella xylostella.” for “Spodoptera exigua Hiibner.”, “Plutella xylostella” for “Spodoptera exigua Hiibners”, “Plutella xylostella” for “Spodoptera exigua Hiibner”
According to the above method, compound 4 and KC1 were selected and parallelly tested against Plutella xylostella to compare their insecticidal activity.

Mythimna separata = test: Indoor bioactivity test against Mythimna separata (leaf dip); settings: foliar, 3rd day after treatment
From the text: The leaf dip method was used to assay the insecticidal activity of compounds to strains of Mythimna sepatata. Cut above ground part of fresh maize seedlings, about 10 cm. Dip the maize seedlings into the solution prepared with compound of this invention for 10 seconds and dry them in a cool environment. Then cut the dry maize seedlings into 3˜5 cm leaf sections and put 3 leaf sections into each petri dish. Put ten of 4th-instar larvae of Mythimna separatas into each dish, which was repeated by 3 times. Then the dishes were placed in an illumination incubator and incubated at 25° C. in the dark. Symptoms were investigated on the 1st, 2nd and 3rd day after treatment, and the mortality was calculated.

Spodoptera litura = test: Indoor bioactivity test against Spodoptera litura (leaf dip); settings: foliar
Method: as §1, with “litura.” for “exigua Hiibner.”, “litura” for “exigua Hiibners”, “litura” for “exigua Hiibner”
According to the above method, compound 4, 23 and KC1 were selected and parallelly tested against Spodoptera litura to compare the insecticidal activity.

Chilo suppressalis = test: Indoor bioactivity test against Chilo suppressalis (rice stem dip)
Method: The leaf dip method was used to assay the insecticidal activity of compounds to strains of Chilo suppressalis. The rice was cultivated in a plastic pot with a diameter of 9 cm and a height of 10 cm. When the rice grew about 25 cm, the aerial part of robust and consistent rice seedlings were selectively cut. Their leaves were removed and their stems of about 8 cm were kept for use. Pour the solution prepared with compound of this invention into the Petri dish (about 40 mL) and immerse the rice stems into the solution for 10 seconds. Take rice stems out and dry them in a cool environment. Put a wet cotton ball at the bottom of finger-like glass tube and 5 rice stems in each tube. Put 10 of 3rd-instar larvae of Chilo suppressa into each tube, which was repeated by 3 times. Seal the tubes with black cotton cloth and tighten them with rubber band. The tubes were placed in a illumination incubator at 28° C. and incubated in the dark. The number of alive Chilo suppressalis and the total number were investigated 3 days after treatment. The mortality was calculated.
According to the above method, Compound 23 and KC2 were selected and parallelly tested against Chilo suppressalis.

soybean thrips = test: Biological activity on soybean thrips in greenhouse (foliar spray)
Method: Test system: naturally occurring thrips population on soybeans planted in greenhouse. The basic number of active thripses were more than 100 thripses per trifoliate leaf. Under the same conditions, the sensitivity of the thrips population to Spinetoram (dose: 50 mg/L) is 96.55% mortality on the 6th day after treatment.
The size of the plot: 10 m^2, no repetition.
Test formulation: each compound was made into 5% SL (compound 5%+emulsifier 5%+solvent to make up 100%).
(1) Spraying time: both adult and larva thripses were in the active period. The number of spray: 1 time.
(2) Standard for water usage: when dose was in mg/kg, the upper leaves were wet and water began to drop therefrom.
(3) Survey standard: count three single leaves as one leaf. Three leaves were randomly selected and investigated for the number of adult and larva thripses on them.
[…] 2 surveys were conducted.

[2] = 0.4 ppm, 3rd day after treatment, read-out: mortality of Spodoptera litura
[3] = 24 h, read-out: Mortality (%) 1 d
[4] = 48 h, read-out: Mortality (%) 2 d
[5] = 72 h, read-out: Mortality (%) 3 d
[6] = dose 50 ppm, 1 d, foliar spray, 5% SL
[7] = dose 50 ppm, 6 d, foliar spray, 5% SL
[8] = 3rd day after treatment, read-out: mortality of Chilo suppressalis

Molecule: O=C(Nc1c(Br)cc(C(F)(C(F)(F)F)C(F)(F)F)cc1C(F)(F)F)c1cccc(N(CC2CC2)C(=O)c2ccc(OC(F)(F)F)cc2)c1F [Compound 60, N-(2-bromo-4-(perfluoropropan-2-yl)-6-(trifluoromethyl)phenyl)-3-(N-(cyclopropylmethyl)-4-(trifluoromethoxy)benzamido)-2-fluorobenzamide]
- mortality at 10 ppm [1]: ≥ 90%
- mortality at 1 ppm (Plutella xylostella): ≥ 90%
- mortality at 1 ppm (Mythimna separata): ≥ 90%
- mortality at 0.4 ppm (Spodoptera litura; [2]): ≥ 90%

Molecule: COC(c1cc(Br)c(NC(=O)c2cccc(N(CC3CC3)C(=O)c3ccc(C(F)(F)F)cc3)c2F)c(C(F)(F)F)c1)(C(F)(F)F)C(F)(F)F [Compound 38, N-(2-bromo-4-(1,1,1,3,3,3-hexafluoro-2-methoxypropan-2-yl)-6-(trifluoromethyl)phenyl)-3-(N-(cyclopropylmethyl)-4-(trifluoromethyl)benzamido)-2-fluorobenzamide]
- mortality at 1 ppm (Mythimna separata): ≥ 90%

Molecule: O=C(Nc1c(Br)cc(C(F)(C(F)(F)F)C(F)(F)F)cc1C(F)(F)F)c1cccc(N(CC2CC2)C(=O)c2ccc(I)cc2)c1F [Compound 52, N-(2-bromo-4-(perfluoropropan-2-yl)-6-(trifluoromethyl)phenyl)-3-(N-(cyclopropylmethyl)-4-iodobenzamido)-2-fluorobenzamide]
- mortality at 10 ppm (Chilo suppressalis; 3rd day after treatment): ≥ 90%
- mortality at 1 ppm (Mythimna separata): ≥ 90%
- mortality at 10 ppm (Spodoptera litura; 3rd day after treatment): ≥ 90%

Molecule: CC(C1CC1)N(C(=O)c1ccc(Br)cc1)c1cccc(C(=O)Nc2c(Br)cc(C(F)(C(F)(F)F)C(F)(F)F)cc2C(F)(F)F)c1F (centres unmarked) [Compound 50, N-(2-bromo-4-(perfluoropropan-2-yl)-6-(trifluoromethyl)phenyl)-3-(4-bromo-N-(1-cyclopropylethyl)benzamido)-2-fluorobenzamide]
- mortality at 10 ppm (Chilo suppressalis; 3rd day after treatment): ≥ 90%

Molecule: CN(C(=O)c1ccccc1)c1cccc(C(=O)Nc2c(Br)cc(C(F)(C(F)(F)F)C(F)(F)F)cc2C(F)(F)F)c1F [KC1 (broflanilide), broflanilide, reference compound]
- mortality at 0.04 ppm (Plutella xylostella; [3]): 0%
- mortality at 0.04 ppm (Plutella xylostella; [4]): 56.7%
- mortality at 0.04 ppm (Plutella xylostella; [5]): 90%
- mortality at 0.4 ppm (Spodoptera litura; [3]): 0%
- mortality at 1 ppm (Spodoptera litura; [3]): 26.7%
- mortality at 0.4 ppm (Spodoptera litura; [4]): 0%
- mortality at 1 ppm (Spodoptera litura; [4]): 33.3%
- mortality at 0.4 ppm (Spodoptera litura; [5]): 0%
- mortality at 1 ppm (Spodoptera litura; [5]): 33.3%

Molecule: CN(C(=O)c1ccc(C#N)cc1)c1cccc(C(=O)Nc2c(Br)cc(C(F)(C(F)(F)F)C(F)(F)F)cc2C(F)(F)F)c1F [KC2, reference compound]
- mortality at 0.4 ppm (Chilo suppressalis; 72 h, 0.4 ppm, 3d): 0%
- mortality at 1 ppm (Chilo suppressalis; 72 h, 1 ppm, 3d): 53.3%
- mortality at 2 ppm (Chilo suppressalis; 72 h, 2 ppm, 3d): 86.7%
- mortality at 5 ppm (Chilo suppressalis; 72 h, 3d, read-out: Mortality (%, 3d) 5 ppm): 93.3%

Molecule: CC(C1CC1)N(C(=O)c1ccc(Cl)cc1)c1cccc(C(=O)Nc2c(Br)cc(C(F)(C(F)(F)F)C(F)(F)F)cc2C(F)(F)F)c1F (centres unmarked) [Compound 44, N-(2-bromo-4-(perfluoropropan-2-yl)-6-(trifluoromethyl)phenyl)-3-(4-chloro-N-(1-cyclopropylethyl)benzamido)-2-fluorobenzamide]
- mortality at 1 ppm (Mythimna separata): ≥ 90%

Molecule: Spinetoram [reference compound]
- sensitivity of the thrips population, mortality (soybean thrips; dose 50 mg/L, 6th day after treatment): 96.55%
- Mortality % 1 d (soybean thrips; [6]): 93.94%
- No. of thrips 1 d (soybean thrips; [6]): 16
- Mortality % 6 d (soybean thrips; [7]): 96.55%
- No. of thrips 6 d (soybean thrips; [7]): 4

Molecule: CC(C1CC1)N(C(=O)c1ccc(C#N)cc1)c1cccc(C(=O)Nc2c(Br)cc(C(F)(C(F)(F)F)C(F)(F)F)cc2C(F)(F)F)c1F (centres unmarked) [Compound 26, N-(2-bromo-4-(perfluoropropan-2-yl)-6-(trifluoromethyl)phenyl)-3-(4-cyano-N-(1-cyclopropylethyl)benzamido)-2-fluorobenzamide]
- mortality at 5 ppm (Chilo suppressalis; [8]): ≥ 90%
- mortality at 0.4 ppm (Plutella xylostella): ≥ 90%
- mortality at 1 ppm (Mythimna separata): ≥ 90%

Molecule: O=C(Nc1c(I)cc(C(F)(C(F)(F)F)C(F)(F)F)cc1C(F)(F)F)c1cccc(N(CC2CC2)C(=O)c2ccc(Br)cc2)c1F [Compound 47, N-(2-iodo-4-(perfluoropropan-2-yl)-6-(trifluoromethyl)phenyl)-3-(4-bromo-N-(cyclopropylmethyl)benzamido)-2-fluorobenzamide]
- mortality at 1 ppm [1]: 90%
- mortality at 10 ppm (Chilo suppressalis; 3rd day after treatment): ≥ 90%
- mortality at 1 ppm (Mythimna separata): ≥ 90%
- mortality at 0.4 ppm (Spodoptera litura; [2]): ≥ 90%

Molecule: CC(C1CC1)N(C(=O)c1ccc(F)cc1)c1cccc(C(=O)Nc2c(Br)cc(C(F)(C(F)(F)F)C(F)(F)F)cc2C(F)(F)F)c1F (centres unmarked) [Compound 63, N-(2-bromo-4-(perfluoropropan-2-yl)-6-(trifluoromethyl)phenyl)-3-(N-(1-cyclopropylethyl)-4-fluorobenzamido)-2-fluorobenzamide]
- mortality at 1 ppm (Plutella xylostella): ≥ 90%

Molecule: CC(C1CC1)N(C(=O)c1ccccc1)c1cccc(C(=O)Nc2c(Br)cc(C(F)(C(F)(F)F)C(F)(F)F)cc2C(F)(F)F)c1F (centres unmarked) [Compound 8, N-(2-bromo-4-(perfluoropropan-2-yl)-6-(trifluoromethyl)phenyl)-3-(N-(1-cyclopropylethyl)benzamido)-2-fluorobenzamide]
- mortality at 0.4 ppm (Plutella xylostella): ≥ 90%
- mortality at 1 ppm (Mythimna separata): ≥ 90%

Molecule: CC(C1CC1)N(C(=O)c1ccc(C(F)(F)F)cc1)c1cccc(C(=O)Nc2c(Br)cc(C(F)(C(F)(F)F)C(F)(F)F)cc2C(F)(F)F)c1F (centres unmarked) [Compound 39, N-(2-bromo-4-(perfluoropropan-2-yl)-6-(trifluoromethyl)phenyl)-3-(N-(1-cyclopropylethyl)-4-(trifluoromethyl)benzamido)-2-fluorobenzamide]
- mortality at 10 ppm (Chilo suppressalis; 3rd day after treatment): ≥ 90%
- mortality at 1 ppm (Plutella xylostella): ≥ 90%
- mortality at 1 ppm (Mythimna separata): ≥ 90%

Molecule: O=C(Nc1c(Br)cc(C(F)(C(F)(F)F)C(F)(F)F)cc1C(F)(F)F)c1cccc(N(C(=O)c2ccccc2)C(C2CC2)C2CC2)c1F [Compound 22, N-(2-bromo-4-(perfluoropropan-2-yl)-6-(trifluoromethyl)phenyl)-3-(N-(dicyclopropylmethyl)benzamido)-2-fluorobenzamide]
- mortality at 1 ppm (Mythimna separata): ≥ 90%

Molecule: O=C(Nc1c(Br)cc(C(F)(C(F)(F)F)C(F)(F)F)cc1C(F)(F)F)c1cccc(N(CC2CC2)C(=O)c2ccc(Br)cc2)c1F [Compound 46, N-(2-bromo-4-(perfluoropropan-2-yl)-6-(trifluoromethyl)phenyl)-3-(4-bromo-N-(cyclopropylmethyl)benzamido)-2-fluorobenzamide]
- mortality at 1 ppm [1]: 90%
- mortality at 5 ppm (Chilo suppressalis; [8]): ≥ 90%

Molecule: O=C(Nc1c(I)cc(C(F)(C(F)(F)F)C(F)(F)F)cc1C(F)(F)F)c1cccc(N(CC2CC2)C(=O)c2ccc(I)cc2)c1F [Compound 53, N-(2-iodo-4-(perfluoropropan-2-yl)-6-(trifluoromethyl)phenyl)-3-(N-(cyclopropylmethyl)-4-iodobenzamido)-2-fluorobenzamide]
- mortality at 10 ppm [1]: ≥ 90%
- mortality at 10 ppm (Chilo suppressalis; 3rd day after treatment): ≥ 90%
- mortality at 10 ppm (Spodoptera litura; 3rd day after treatment): ≥ 90%
